Experimental data as given in patent US20260125730A1, “A NEW INDUCER FOR METHANOL-FREE PICHIA PASTORIS EXPRESSION SYSTEM” (priority 2022, published 2026).

System: AOX1 promoter
Assay: Induction of the AOX1 promoter in recombinant P. pastoris cells carrying the azurin gene; western blot of culture broth with anti-azurin antibody
Type: cell-based, Pichia pastoris
Description: FIG. 1B. Relative expression levels of azurin protein in culture broths
Recombinant yeast cells were obtained by performing steps A, B and C in the study in which the recombinant DNA obtained by Inserting the azurin gene of Pseudomonas aeruginosa into pPICZαA was integrated into the genome of P. pastoris X33 strain (https://pubmed.ncbi.nlm.nih.gov/33346686/).
In this Invention, recombinant Pichia pastoris cells which carry the “azurin protein” gene (as a reference gene) from Pseudomonas aeruginosa in their genomes and can perform the extracellular production of this protein were used.
Said protein gene is located in the downstream of the AOX1 promoter in the genome of P. pastoris cells. If the AOX promoter is induced, expression of this gene inserted into the genome can be achieved. […] Methanol or farnesol was added to the culture medium In predetermined amounts every 24 hours.

Row | Structure (SMILES) | protein expression level among the farnesol groups (240 farnesol group compared with 120 and 480 μL/L, 72 hours, FIG. 1B) | protein expression level relative to the 0.5% (v/v) methanol-induced group (240 farnesol group, P<0.05, FIG. 1B) | extracellular protein (azurin) production on induction of the promoter (farnesol 120 μL/L, 240 μL/L and 480 μL/L added every 24 hours, sorbitol as carbon source, 30° C., 280 rpm, 72 hours, FIG. 1A) | protein (azurin) production on induction of the promoter (methanol 0.5% v/v (control inducer) added every 24 hours, sorbitol as carbon source, 30° C., 280 rpm, 72 hours, FIG. 1A)
1 | CC(C)=CCCC(C)=CCCC(C)=CCO [farnesol] | highest protein expression level | higher than that of the 0.5% (v/v) methanol-induced group | protein production also occurred | –
2 | CO [methanol] | – | – | – | protein production
